Assay results as given in the supplement of paper PMC11451515.

Tested on: NOMO1
Experiment: cell viability relative to DMSO control; higher = less cytotoxic
Details: 48 h
Summary of the method: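 Viability is a per-plate percentage relative to DMSO wells, with cell-free wells as background. CellTiter-Glo One luminescence was read after 48 h at 37°C on 1536-well plates (5 μl) of NOMO1 or SEM (500 cells/well) or P12-Ichikawa (1000 cells/well) leukemia cells. The cells had been adapted for at least four passages in each medium and pin-dosed with library compounds in DMSO from 47 μM to 0.79 nM in 11 threefold steps.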

[1] = HPLM + 10% dialyzed FBS, 0.000781 µM
[2] = HPLM + 10% dialyzed FBS, 0.00234 µM
[3] = HPLM + 10% dialyzed FBS, 0.00702 µM
[4] = HPLM + 10% dialyzed FBS, 0.0211 µM
[5] = HPLM + 10% dialyzed FBS, 0.0632 µM
[6] = HPLM + 10% dialyzed FBS, 0.19 µM
[7] = HPLM + 10% dialyzed FBS, 0.569 µM
[8] = HPLM + 10% dialyzed FBS, 1.71 µM
[9] = HPLM + 10% dialyzed FBS, 5.12 µM
[10] = HPLM + 10% dialyzed FBS, 15.4 µM
[11] = HPLM + 10% dialyzed FBS, 46.1 µM
[12] = RPMI 5 mM glucose + 10% FBS, 0.000781 µM
[13] = RPMI 5 mM glucose + 10% FBS, 0.00234 µM
[14] = RPMI 5 mM glucose + 10% FBS, 0.00702 µM
[15] = RPMI 5 mM glucose + 10% FBS, 0.0211 µM
[16] = RPMI 5 mM glucose + 10% FBS, 0.0632 µM
[17] = RPMI 5 mM glucose + 10% FBS, 0.19 µM
[18] = RPMI 5 mM glucose + 10% FBS, 0.569 µM
[19] = RPMI 5 mM glucose + 10% FBS, 1.71 µM
[20] = RPMI 5 mM glucose + 10% FBS, 5.12 µM
[21] = RPMI 5 mM glucose + 10% FBS, 15.4 µM
[22] = RPMI 5 mM glucose + 10% FBS, 46.1 µM
[23] = RPMI 5 mM glucose + 10% dialyzed FBS, 0.000781 µM
[24] = RPMI 5 mM glucose + 10% dialyzed FBS, 0.00234 µM
[25] = RPMI 5 mM glucose + 10% dialyzed FBS, 0.00702 µM
[26] = RPMI 5 mM glucose + 10% dialyzed FBS, 0.0211 µM
[27] = RPMI 5 mM glucose + 10% dialyzed FBS, 0.0632 µM
[28] = RPMI 5 mM glucose + 10% dialyzed FBS, 0.19 µM
[29] = RPMI 5 mM glucose + 10% dialyzed FBS, 0.569 µM
[30] = RPMI 5 mM glucose + 10% dialyzed FBS, 1.71 µM
[31] = RPMI 5 mM glucose + 10% dialyzed FBS, 5.12 µM
[32] = RPMI 5 mM glucose + 10% dialyzed FBS, 15.4 µM
[33] = RPMI 5 mM glucose + 10% dialyzed FBS, 46.1 µM

Row | SMILES | cell viability [1] [%] | cell viability [2] [%] | cell viability [3] [%] | cell viability [4] [%] | cell viability [5] [%] | cell viability [6] [%] | cell viability [7] [%] | cell viability [8] [%] | cell viability [9] [%] | cell viability [10] [%] | cell viability [11] [%] | cell viability [12] [%] | cell viability [13] [%] | cell viability [14] [%] | cell viability [15] [%] | cell viability [16] [%] | cell viability [17] [%] | cell viability [18] [%] | cell viability [19] [%] | cell viability [20] [%] | cell viability [21] [%] | cell viability [22] [%] | cell viability [23] [%] | cell viability [24] [%] | cell viability [25] [%] | cell viability [26] [%] | cell viability [27] [%] | cell viability [28] [%] | cell viability [29] [%] | cell viability [30] [%] | cell viability [31] [%] | cell viability [32] [%] | cell viability [33] [%]
1 | C[C@@]12C[C@@]3(O)O[C@@H](O1)[C@]1(COC(=O)c4ccccc4)[C@H]3C[C@@]12O[C@@H]1O[C@H](CO)[C@@H](O)[C@H](O)[C@H]1O | 94.6 | 112 | 99.3 | 126 | 124 | 130 | 137 | 113 | 100 | 71.1 | 45.5 | 100 | 95.2 | 109 | 103 | 114 | 105 | 105 | 103 | 98.3 | 109 | 112 | 103 | 91.2 | 94.9 | 103 | 101 | 114 | 93.7 | 107 | 114 | 110 | 91
2 | CCOC(=O)\C1=C(/C)N\C2=C(C1C3=CC=C(C=C3)C4=CC=CC=C4)\C(=O)CC(C)(C)C2 (stereo not drawn) | 125 | 97.2 | 125 | 117 | 116 | 114 | 102 | 102 | 106 | 82.3 | 73.6 | 107 | 103 | 102 | 108 | 105 | 109 | 103 | 102 | 106 | 87 | 88.2 | 110 | 103 | 111 | 114 | 113 | 95.1 | 104 | 112 | 90.1 | 73.7 | 74.8
3 | O=C(NC[C@H](O)CO)c1ccncc1Nc1ccc(I)cc1F | 94.7 | 98.5 | 90 | 93 | 82.2 | 60.9 | 53.2 | 56 | 49.2 | 38.6 | 40.4 | 103 | 101 | 111 | 90.8 | 65.2 | 61.7 | 52.6 | 51.6 | 47.6 | 37.9 | 6.49 | 88.3 | 96.1 | 93.6 | 81.1 | 72.2 | 61.9 | 52 | 49.1 | 41.6 | 38.9 | 39.3
4 | N[C@H](CSC(c1ccccc1)(c1ccccc1)c1ccccc1)C(=O)O | 108 | 114 | 133 | 135 | 116 | 108 | 115 | 125 | 120 | 129 | 99.6 | 121 | 113 | 126 | 131 | 123 | 118 | 138 | 139 | 114 | 115 | 106 | 106 | 116 | 117 | 129 | 131 | 127 | 134 | 126 | 108 | 109 | 116
5 | Nc1ncnc2c1c(-c1cnc3[nH]ccc3c1)nn2C1CCCC1 |  |  |  |  |  |  |  |  |  |  |  | 108 | 120 | 141 | 135 | 119 | 114 | 112 | 93.5 | 66.7 | 54.4 | 45.4 | 106 | 119 | 103 | 109 | 131 | 100 | 104 | 81.7 | 61.8 | 52.8 | 45.8
6 | CN1CCCN=C1/C=C/c1cccs1.O=C(O)c1cc2ccccc2c(Cc2c(O)c(C(=O)O)cc3ccccc23)c1O | 114 | 111 | 126 | 108 | 122 | 112 | 123 | 120 | 104 | 34.1 | 17.2 | 115 | 121 | 129 | 112 | 114 | 111 | 117 | 137 | 109 | 92.7 | 29.3 | 120 | 127 | 114 | 104 | 110 | 110 | 119 | 110 | 110 | 64.4 | 28.9
7 | C[N]1C=C(C2=C1C=CC=C2)\C3=C(\C(=O)NC3=O)C4=C5CC(CN)CC[N]5C6=C4C=CC=C6 (stereo not drawn) | 94.9 | 118 | 115 | 101 | 109 | 120 | 115 | 110 | 113 | 90 | 37.4 | 88.5 | 104 | 94.1 | 97.8 | 102 | 100 | 93.5 | 95.8 | 96.8 | 81.3 | 44.1 | 92.8 | 100 | 106 | 114 | 105 | 111 | 105 | 100 | 104 | 88 | 63.4
8 | COc1ccc(-c2ccc3c(N4CCOC[C@@H]4C)nc(N4CCOC[C@@H]4C)nc3n2)cc1CO | 93.6 | 76.5 | 93.1 | 82.1 | 74.5 | 64.6 | 58.7 | 55.1 | 48 | 9.86 | 3.58 | 103 | 75.7 | 94 | 95.6 | 90.4 | 84.5 | 75.1 | 72.4 | 63.4 | 41.7 | 4.25 | 102 | 63.9 | 98.6 | 86 | 85.9 | 69 | 64 | 70.5 | 57.4 | 52.4 | 5.83
9 | CC/1=C(/N2[C@H](SC1)[C@H](NC(=O)[C@H](N)\C3=C\C\C=C/C3)C2=O)C(O)=O | 97.5 | 110 | 103 | 109 | 108 | 121 | 123 | 135 | 121 | 115 | 121 | 110 | 119 | 114 | 118 | 119 | 124 | 109 | 117 | 129 | 125 | 127 | 102 | 109 | 104 | 124 | 115 | 108 | 114 | 121 | 126 | 109 | 118
10 | O=C(Nc1ccccc1-c1cn2c(CN3CCNCC3)csc2n1)c1cnc2ccccc2n1 | 91.8 | 83 | 71.9 | 77.7 | 82.6 | 92 | 81.9 | 66.6 | 79.3 | 74.2 | 76.3 | 76.6 | 80.6 | 82.9 | 85.1 | 79.7 | 85.3 | 70.3 | 68.1 | 77.1 | 65.6 | 0.639 | 86.3 | 84.6 | 96 | 90.5 | 80 | 80.2 | 74.2 | 86.8 | 79.4 | 69 | 75.1
11 | CC1(C)O[C@@H]2C[C@H]3[C@@H]4CCC5=CC(=O)C=C[C@]5(C)[C@H]4[C@@H](O)C[C@]3(C)[C@]2(C(=O)CO)O1 | 95 | 92.4 | 104 | 90.7 | 119 | 108 | 117 | 98.5 | 95.2 | 91.9 | 101 | 87.2 | 92.5 | 90.4 | 88.7 | 97.4 | 110 | 88.7 | 92.5 | 98.5 | 87.8 | 93.6 | 96.7 | 91.4 | 90.9 | 90.4 | 94.2 | 92.9 | 106 | 109 | 104 | 85.6 | 103
12 | C[C@@H]\1CC(=O)N\N=C1C2=CC=C(NN=C(C#N)C#N)C=C2 | 90.8 | 89.5 | 107 | 95.5 | 99.9 | 90.2 | 102 | 87.6 | 88.5 | 86.8 | 4.87 | 93.9 | 87.6 | 92.6 | 90.6 | 87.9 | 96.7 | 85.7 | 97.5 | 89.2 | 80 | 7.6 | 85.3 | 94.7 | 93.4 | 90.7 | 95.3 | 92.6 | 96.3 | 89 | 87.1 | 83.2 | 9.26
13 | CCOC(=O)C/1=C(O)/C(=O)N(CC2=CC=CC=C2)C1 | 95.4 | 113 | 129 | 124 | 110 | 106 | 103 | 122 | 114 | 103 | 95.6 | 102 | 113 | 98.3 | 99.2 | 98.6 | 99.5 | 111 | 95.9 | 95.7 | 95.7 | 103 | 102 | 118 | 110 | 109 | 110 | 115 | 105 | 111 | 91.2 | 103 | 95.1
14 | Cc1cn([C@@H]2O[C@H](CO)[C@@H](O)[C@@H]2F)c(=O)[nH]c1=O |  |  |  |  |  |  |  |  |  |  |  | 93.5 | 108 | 102 | 117 | 114 | 121 | 110 | 115 | 109 | 113 | 29 | 86.1 | 120 | 114 | 108 | 123 | 119 | 127 | 120 | 103 | 126 | 22.4
15 | CSCC[C@@H](NC(=O)[C@@H](Cc1ccccc1)NC(=O)CNC(=O)CNC(=O)[C@@H](N)Cc1ccc(O)cc1)C(=O)O | 77.4 | 90.8 | 110 | 28.1 | 110 | 121 | 121 | 104 | 92 | 100 | 109 | 91.8 | 89.3 | 105 | 22.1 | 110 | 103 | 102 | 100 | 95.4 | 101 | 97.9 | 87.1 | 97.4 | 94.6 | 34.8 | 88.3 | 103 | 97.6 | 111 | 99.9 | 113 | 109
